Assay results: patent US20080173808A1, “PROCESS AND DEVICE FOR RESPONSE NORMALIZED LIQUID CHROMATOGRAPHY NANOSPRAY IONIZATION MASS SPECTROMETRY (RNLC-NSI-MS)” (Schering Corporation, priority 2007, published 2008)

Test: Nanoflow ESI (NanoMate-QTOF), RNLC-NSI-MS of drug and metabolites
Conditions: Vicriviroc and its metabolites, relative LC-MS response, M35 = 100
Protocol: For experiments described herein, high performance liquid chromatography (HPLC) separations of analytes were performed at room temperature using the first HPLC system referred to in FIG. 1 as “analytical HPLC”. […] The analytical HPLC column effluent was split (mixing tee 1 or T-1 in FIG. 1) so that 15-25% of the flow was directed to a second mixing tee (T-2 in FIG. 1) connected to the NSI source and 75-85% diverted to an auxiliary detector (e.g. a radioactivity detector (10-11) or a charged aerosol detector (12-13)). Separation of metabolites was achieved using the analytical HPLC system and programmed linear changes in mobile phase composition as shown in Table 1.
A second HPLC pump, referred to in FIG. 1 as the “Response Normalizing HPLC”, was used to deliver an exactly inverse gradient. Inverse gradient was achieved by switching the aqueous mobile phase to pump B and the organic mobile phase to pump A and using the same gradient program as the one used in the analytical HPLC system. The flow rate of the Response Normalizing HPLC system was maintained between 0.1 and 0.2 mL/min. […] The “Response Normalizing Flow” was introduced into the NSI source via a second mixing tee (T-2). HPLC flows from the analytical HPLC and from the “Response Normalizing HPLC” were combined in the second mixing tee (T-2). The combined flow was delivered to the NSI (NanoMate, API, or any other ion sources) via a union (referred in FIG. 1 as “bulkhead”). For NSI experiments, the combined flow is further split using a mixing tee. The split ratio within the NSI source was manipulated by adjusting the various diameters and lengths of fused silica capillary tubing used to deliver the flow to MS and the fraction collector/waste. Approximately 1-5% of the combined flow was delivered to the NSI source for MS analysis.

COC[C@@H](c1ccc(C(F)(F)F)cc1)N1CCN(C2(C)CCN(C(=O)c3c(C)ncnc3C)CC2)C[C@@H]1C [Vicriviroc]
Nanoflow ESI (NanoMate-QTOF) 0.15 mL/min Normalizing HPLC flow (0.15 mL/min normalizing flow): 23.0 | Nanoflow ESI (NanoMate-QTOF) 0.2 mL/min Normalizing HPLC flow (0.2 mL/min normalizing flow): 14.3 | Nanoflow ESI (NanoMate-QTOF) Without Normalizing HPLC flow (no normalizing flow): 50.0
